Measured values from article PMC9401600 (Chemmedchem, 2022).

Key:
PAMPA‐BBB assay = assay type: in vitro ADME; details: for predictive penetration in the CNS: PAMPA‐BBB classification; for Papp: pig, PAMPA‐BBB, PBS:EtOH (70 : 30), read-out: Permeability (Pe) experimental value
Description: To evaluate the brain penetration of the different compounds, a parallel artificial membrane permeation assay for BBB was used, following the method described by Di et al..[33] The in vitro Pe of fourteen commercial drugs through lipid extract of porcine brain membrane together with the test compounds were determined. Commercial drugs and assayed compounds were tested using a mixture of PBS:EtOH (70 : 30).

[1] = system: Aβ deposits in CL2006 strain; assay: Thioflavin‐S staining of Aβ aggregation; assay type: in vivo, Caenorhabditis elegans; details: head region, after 5 days of treatment, compared to the vehicle group
Description: The transgenic AD strain CL2006 is characterized by the expression of human Aβ1‐42 under the control of a muscle‐specific promoter, making it suitable to answer this objective in our work. As we mentioned above, UNC0638 was used as a positive control. […] After 5 days of treatment, adult CL2006 C. elegans were fixed in 4 % Paraformaldehyde/Phosphate‐buffered saline (PBS) (pH 7.5), for 24 hours at 4 °C. […] On the last day, nematodes were stained with 0.125 % Thioflavin‐S (ThS) (Sigma, CAS# 1326–12‐1) in 50 % ethanol (EtOH) for 2 min, destained in 50 % EtOH for 2 min, washed 3 times with PBS. To prepare the glass slide for microscopy, approximately 10 μL volume was transferred on a droplet of Fluoromount G (Electron Microscopy Sciences, CAT#17984‐25). Fluorescence images were acquired using a 20 Å∼ objective of a fluorescence microscope. Aβ in the head region of worms were quantified by counting the number of Th−S positive spots using ImageJ and were expressed as Aβ deposits/anterior area.

C. elegans strain CL2006 = assay: Locomotion assay (motor index); assay type: in vivo, Caenorhabditis elegans; details: CL2006 worms, 0.001-1 μM, chronic treatment, compared with UNC0638
Description: One of the best‐characterized transgenic AD strains in C. elegans is the CL2006 strain, which contains the Punc‐54::Aβ1–42 transgene, showing a progressive adult‐onset paralysis. Then, to establish a dose‐response profile, the pharmacological impact of G9a inhibition was evaluated in a locomotion assay with this C. elegans strain. We performed a motility assay where animals were placed in the center of a seeded plate and allowed to explore the environment freely. […] N2 (WT), and CL2006 strain were treated with dimethyl sulfoxide (DMSO) 1 %, used as a vehicle, which should not cause a relevant locomotor defective phenotype. […] The motor index for each condition was calculated using the motor performance of Bristol (N2) (WT, 100 %) and the transgenic AD strain (CL2006, 0 %) animals as reference.
Locomotion assay of G9a inhibitors was assessed to obtain dose‐response profile, evaluating the impact of the pharmacology treatment in motor dysfunction presented by the transgenic strains CL2006. Nematodes were synchronized by alkaline hypochlorite treatment, and drug assay was performed as described above, except for the OP50 bacteria OD595 adjusted to 0.9, and the duration of the treatment was 5 days. N2 (WT), and the transgenic strain CL2006 were treated in liquid media for 4 days at 20 °C and 180 rpm, starting at the L1 stage. On day 5 of age, worms were transferred from the 96‐well plates onto an unseeded NGM plate for 45 minutes before starting the trial, allowing the plates to dry and worms. Locomotion assays were performed in 30 mm NGM plates, in which the whole surface of the plate was covered by OP50. 5 to 10 adult nematodes were placed in the center of a circle (with 1 cm of diameter) in the seeded 30 mm NGM plates. After 1 min, the number of animals remaining inside the circle was scored as a locomotor defect. Motor behavior assays were run in triplicates (n=3), with a total of at least 100 animals tested per compound concentration. Motor index establishes a score where treated animals showing the same motor defect as CL2006 have an index of 0 %. […] All the results shown in the figures are calculated using the following formula: Motorindex(%)=(LDCL2006vehicle-LDCL2006drug)/(LDCL2006vehicle-LDWTvehicle)×100 LD=locomotiondefective

| Compound | predictive penetration in the CNS (PAMPA‐BBB assay) | Papp (PAMPA‐BBB assay) [×10⁻⁶ cm/s] | reduction of Aβ deposition (Thioflavin S‐positive particles) [1] | motor index dose‐response profile (in words) (C. elegans strain CL2006) |
| --- | --- | --- | --- | --- |
| Cc1cc(N2CCN(Cc3cc(CN4CCCC4)cs3)CC2)nc(N)n1 [E] | CNS+/‐ | 2.2 ± 0.1 | approximately 25% | ameliorating the paralysis presented by CL2006 |
| CCN1C[C@H](NC(=O)c2cc3cc(Cl)ccc3[nH]2)[C@@H](OC)C1 [F, 5‐chloro‐N‐((3S,4S)‐1‐ethyl‐4‐methoxypyrrolidin‐3‐yl)‐1H‐indole‐2‐carboxamide] | CNS+ (compounds of high BBB permeation (CNS+): Pe (10^−6 cm ⋅ s^−1) >5.14) | 10.9 ± 0.4 | approximately 40% | ameliorating the paralysis presented by CL2006 |
| Cc1cc(CNC(=O)C(c2ccc(F)cc2)N2CCCCC2)cnc1C (stereo not drawn) [H] | CNS+ (compounds of high BBB permeation (CNS+): Pe (10^−6 cm ⋅ s^−1) >5.14) | 17.4 ± 2.4 | 3% | ameliorating the paralysis presented by CL2006 |
